What was measured:
Na^+,K^+ -ATPase [1] = molecular target: T1, Na^+,K^+ -ATPase (Canis lupus familiaris, UniProt P50997); experiment: inhibition of the activity of the purified Na^+,K^+ -ATPase measured as % of hydrolysis of ^32 P-ATP; type: biochemical
T1 construct: Na^+,K^+ -ATPase receptor purified according to Jorghensen; from tissue
Source text: (§1) To test the affinity for the receptor site of the Na^+,K^+ -ATPase and the agonist or antagonist activity on the enzyme, the following tests were used: a) displacement of the specific ^3 H-ouabain binding from the Na^+,K^+ -ATPase receptor purified according to Jorghensen (Jorghensen P., BBA, 1974, 356, 36) and Erdmann ( Erdmann E. et al., Arzneim. Forsh., 1984, 34, 1314); b) inhibition of the activity of the purified Na^+,K^+ -ATPase measured as % of hydrolysis of ^32 P-ATP in presence and in absence of the tested compound (Doucet A. et al., Am. J. Physiol., 1986, 251, F851). The ability of these compounds to lower blood pressure in adult hypertensive MHS rats was tested according to the following scheme: systolic blood pressure (SBP) and heart rate (HR) were measured by an indirect tail-cuff method in three-month old hypertensive MHS rats before starting with the treatment (basal values). The rats were then subdivided in two groups of 7 animals each, one receiving the compound and the other, the control group, receiving only the vehicle. The compound was orally daily given, suspended in Methocel 0.5% (w/v), for ten days. SBP and HR were measured daily 6 and 24 hours after the treatment.

Na^+,K^+ -ATPase [2] = molecular target: T1, Na^+,K^+ -ATPase; experiment: displacement of the specific ^3 H-ouabain binding from the purified Na^+,K^+ -ATPase receptor
Source text: as §1

hypertensive MHS rats = experiment: systolic blood pressure and heart rate in hypertensive MHS rats (indirect tail-cuff, ten-day oral treatment); type: in vivo, rat; conditions: 20 mg/Kg/os daily for ten days, in METHOCEL 0.5% w/v, 7 rats; for SYSTOLIC BLOOD PRESSURE FALL IN SPONTANEOUS HYPERTENSIVE RATS (MHS), SBP: controls 171 +/- 4.5; for HR: controls 384 +/- 11.0
Source text: as §1
After ten-day treatment, washout was started for at least two days, to verify whether the treatment maintained SBP low or reestablished the basal values.

[3] = ^3 H-ouabain displacement, purified Na^+,K^+ -ATPase, read-out: Binding ^3 H-Ouab. Displacement log IC50 (converted)
[4] = hydrolysis of ^32 P-ATP, purified Na^+,K^+ -ATPase, read-out: Inhibitory Activity log IC50 (converted)

| Structure (SMILES) | IC50 (Na^+,K^+ -ATPase [1]) [µM] | IC50 (Na^+,K^+ -ATPase [2]; [3]) [µM] | IC50 (Na^+,K^+ -ATPase [1]; [4]) [µM] | IC50 (Na^+,K^+ -ATPase [2]) [µM] | SYSTOLIC BLOOD PRESSURE FALL IN SPONTANEOUS HYPERTENSIVE RATS (MHS), SBP (hypertensive MHS rats) | HR (hypertensive MHS rats) |
| --- | --- | --- | --- | --- | --- | --- |
| C[C@]12CC[C@H](OCCN3CCCC3)C[C@H]1CC[C@@H]1[C@@H]2CC[C@@]2(C)[C@H]1CC[C@@]2(OCCN1CCCC1)c1ccoc1 [Comp. I-ad, 3β17β-Bis(2-(1-pyrrolidinyl)ethoxy)-17α-(3-furyl)-5β-androstane] | 3.16 | 0.398 | – | – | – | – |
| C[C@]12CC[C@H](OCCCN)C[C@@H]1CC[C@@H]1[C@@H]2CC[C@@]2(C)[C@H]1CC[C@@]2(O)c1ccoc1 [Comp. I-ai, 3β-(3-Aminopropoxy)-17α-(3-furyl)-androstan-17β-ol] | – | – | 1.58 | 0.251 | – | – |
| C[C@]12CC[C@H](OCCN3CCCC3)C[C@@H]1CC[C@@H]1[C@@H]2CC[C@@]2(C)[C@H]1CC[C@@]2(OCCN1CCCC1)c1ccoc1 [Comp. I-ak, 3β, 17β-Bis(2-(1-pyrrolidinyl)ethoxy)-17α-(3-furyl)-androstane] | 5.01 | 0.398 | – | – | – | – |
| C[C@]12CC[C@H](OCCOCCN3CCCC3)C[C@@H]1CC[C@@H]1[C@@H]2CC[C@@]2(C)[C@H]1CC[C@@]2(O)c1ccoc1 [Comp. I-al, 3β-(2-(2(1-Pyrrolidinyl)ethoxyy)ethoxy)-17α-(3-furyl)-androstan-17β-ol] | – | 0.501 | 1.58 | – | – | – |
| C[C@]12CC[C@H](OCCOCCN3CCCC3)C[C@@H]1CC[C@@H]1[C@@H]2CC[C@@]2(C)[C@H]1CC[C@@]2(OCCN)c1ccoc1 [Comp. I-am, 3β-(2-(2-(1-Pyrrolidinyl)ethoxy)ethoxy)-17β-(2-aminoethoxy)-17α-(3-furyl)-androstane] | – | 0.2 | 1.58 | – | 153 +/- 5.1 mm Hg | 378 +/- 8.5 beats/min. |
| C[C@]12CC[C@H](OCCOCCN3CCCC3)C[C@@H]1CC[C@@H]1[C@@H]2CC[C@@]2(C)[C@H]1CC[C@@]2(OCCN1CCCC1)c1ccoc1 [Comp. I-an, 3β-(2-(2-(1-Pyrrolidinyl)ethoxy)ethoxy)-17β-(2-(1-pyrrolidinyl)ethoxy)-17α-(3-furyl)-androstane] | – | – | – | – | 152 +/- 5.0 mm Hg | 375 +/- 9.0 beats/min. |
| C[C@]12CC[C@H](OCCOCCN3CCCC3)C=C1CC[C@@H]1[C@@H]2CC[C@@]2(C)[C@H]1CC[C@@]2(OCCN)c1ccoc1 [Comp. I-aq, 3β-(2-(2-(1-Pyrrolidinyl)ethoxy)ethoxy)-17α-(2-aminoethoxy)-17α-(3-furyl)-androst-4-ene] | 2.51 | 0.316 | – | – | 148 +/- 3.2 mm Hg | 388 +/- 12.0 beats/min. |
| C[C@]12CC[C@H](OCCOCCN3CCCC3)CC1=CC[C@@H]1[C@@H]2CC[C@@]2(C)[C@H]1CC[C@@]2(OCCN1CCCC1)c1ccoc1 [Comp. I-ay, 3β-(2-(2-(1-pyrrolidinyl)ethoxy)ethoxy)-17β-(2-(1-pyrrolidinyl)ethoxy)-17α-(3furyl)-androst-5-ene] | – | 0.398 | 1.58 | – | 149 +/- 4.8 mm Hg | 395 +/- 10.0 beats/min. |
| C[C@]12CC[C@H](SCCOCCN3CCCC3)C[C@@H]1CC[C@@H]1[C@@H]2CC[C@@]2(C)[C@H]1CC[C@@]2(OCCN1CCCC1)c1ccoc1 [Comp. I-ca, 3β-(2-(2-(1-Pyrrolidinyl)ethoxy)ethylthio)-17β-(2-(1-pyrrolidinyl)ethoxy)-17α-(3-furyl)-androstane] | – | 0.316 | 2 | – | – | – |
| C[C@]12CC[C@H](O)C[C@H]1CC[C@@H]1[C@@H]2CC[C@]2(C)[C@@H](c3ccoc3)CC[C@]12O [Ref. comp., 17β-(3-furyl)-5β-androstane-3β, 14β-diol, reference compound] | 2 | – | – | 0.501 | 173 +/- 4.0 mm Hg | 380 +/- 10.0 beats/min. |
